Measurements taken from patent US20230123334A1, “AMINO LIPID COMPOUND, PREPARATION METHOD THEREFOR, AND APPLICATION THEREOF” (SHENZHEN SHENXIN BIOTECHNOLOGY CO., LTD., priority 2020, published 2023).

How the values were obtained:
HEK293 cells [1] = experiment: Preliminary screening as mRNA vectors, EGFP mRNA transfection of HEK293 cells; type: cell-based; settings: HEK293 cells, 96-well plates, EGFP mRNA 50 ng per well; percentage of GFP fluorescent cells relative to total number of cells (Hoechst)
Method in brief: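 Each well of HEK293 cells received 50 ng of EGFP mRNA. Efficiency was expressed as percent GFP-expressing cells over Hoechst-defined total cell number.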

HEK293 cells [2] = experiment: Preliminary screening as DNA vectors, GFP transfection of HEK293 cells; type: cell-based; settings: HEK293 cells; lipid/DOPE liposome with 75 ng plasmid DNA (psin-EGFP-IRES-Puro); number of cells expressing GFP divided by total number of nuclei (Hoechst)
Method in brief: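 Lipid + DOPE liposomes (NaOAc, pH 5.6) complexed w/ 75 ng psin-EGFP-IRES-Puro, 30 min RT; added to 3-5×10^4 HEK293/well, 37° C. Hoechst 0.2 μg/mL at 20-24 h, imaged after further 20-24 h. Efficiency = GFP+ cells / total nuclei.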

Compound	Absolute mRNA transfection efficiency in HEK293 cells (HEK293 cells [1]) [%]	Absolute DNA transfection efficiency in HEK293 cells (HEK293 cells [2]) [%]
CCCCCCCCCCCCN(CCCCCCCCCCCC)c1nc(NCCCCCCC)nc(NCCN2CCOCC2)n1 [N7^2N12D2]	0.9	1.7
CCCCCCCCCCCCN(CCCCCCCCCCCC)c1nc(NCCCCCCC)nc(NCCN2CCCC2)n1 [N7^2N12D3]	6.8	2.5
CCCCCCCCCCCCN(CCCCCCCCCCCC)c1nc(NCCCCCCC)nc(NCCN2CCCCC2)n1 [N7^2N12D4]	3.7	1.2
CCCCCCCCCCCCN(CCCCCCCCCCCC)c1nc(NCCCCCCC)nc(NCCN2CCN(C)CC2)n1 [N7^2N12D5]	2.4	0.9
CCCCCCCCCCCCN(CCCCCCCCCCCC)c1nc(NCCCCCCC)nc(NCCCN(C)C)n1 [N7^2N12D6]	4.8	0.7
CCCCCCCCCCCCN(CCCCCCCCCCCC)c1nc(NCCCCCCC)nc(NCCN(CC)CC)n1 [N7^2N12D7]	1.9	0.6
CCCCCCCCCCCCN(CCCCCCCCCCCC)c1nc(NCCCCCCC)nc(NCCCN2CCOCC2)n1 [N7^2N12D8]	2.7	1.6
CCCCCCCCCCCCN(CCCCCCCCCCCC)c1nc(NCCCCCCC)nc(NCCCN2CCN(C)CC2)n1 [N7^2N12D9]	5.4	1.9
CCCCCCCCCCCCN(CCCCCCCCCCCC)c1nc(NCCCCCCC)nc(NCC2CCN(C)CC2)n1 [N7^2N12D10]	2.0	1.4
CCCCCCCCCCCCN(CCCCCCCCCCCC)c1nc(NCCCCCCCC)nc(NCCN(C)C)n1 [N8^2N12D1]	0.2	0.0
CCCCCCCCCCCCN(CCCCCCCCCCCC)c1nc(NCCCCCCCC)nc(NCCN2CCOCC2)n1 [N8^2N12D2]	1.4	0.1
CCCCCCCCCCCCN(CCCCCCCCCCCC)c1nc(NCCCCCCCC)nc(NCCN2CCCC2)n1 [N8^2N12D3]	0.9	0.1
CCCCCCCCCCCCN(CCCCCCCCCCCC)c1nc(NCCCCCCCC)nc(NCCN2CCCCC2)n1 [N8^2N12D4]	0.2	0.0
CCCCCCCCCCCCN(CCCCCCCCCCCC)c1nc(NCCCCCCCC)nc(NCCN2CCN(C)CC2)n1 [N8^2N12D5]	0.4	0.0
CCCCCCCCCCCCN(CCCCCCCCCCCC)c1nc(NCCCCCCCC)nc(NCCCN(C)C)n1 [N8^2N12D6]	0.9	0.0
CCCCCCCCCCCCN(CCCCCCCCCCCC)c1nc(NCCCCCCCC)nc(NCCN(CC)CC)n1 [N8^2N12D7]	0.0	0.0
CCCCCCCCCCCCN(CCCCCCCCCCCC)c1nc(NCCCCCCCC)nc(NCCCN2CCOCC2)n1 [N8^2N12D8]	2.0	0.2
CCCCCCCCCCCCN(CCCCCCCCCCCC)c1nc(NCCCCCCCC)nc(NCCCN2CCN(C)CC2)n1 [N8^2N12D9]	0.4	0.2
CCCCCCCCCCCCN(CCCCCCCCCCCC)c1nc(NCCCCCCCC)nc(NCC2CCN(C)CC2)n1 [N8^2N12D10]	2.7	0.0
CCCCCCCCCCCCN(CCCCCCCCCCCC)c1nc(NCCCCCCCCC)nc(NCCN(C)C)n1 [N9^2N12D1]	4.7	0.0
CCCCCCCCCCCCN(CCCCCCCCCCCC)c1nc(NCCCCCCCCC)nc(NCCN2CCOCC2)n1 [N9^2N12D2]	1.3	0.0
CCCCCCCCCCCCN(CCCCCCCCCCCC)c1nc(NCCCCCCCCC)nc(NCCN2CCCC2)n1 [N9^2N12D3]	2.3	0.4
CCCCCCCCCCCCN(CCCCCCCCCCCC)c1nc(NCCCCCCCCC)nc(NCCN2CCCCC2)n1 [N9^2N12D4]	0.4	0.0
